Test results taken from patent US5512573A, “Use of phthaloylhydrazide derivatives as anti-hypoxic and defensive agents” (priority 1993, dated 1996).
Counter-ions that a name gives are not always drawn.

What was measured:
[1] = tested on: myocardial ischemia in rats; experiment: Example 3: myocardial ischemia with restored circulation in rats; type: in vivo
Experimental: Experiments were performed on 60 previously prepared rats. Thirty days before the start of the main experiment, a part of the coronary artery was tied off.
Next, after having supplied light anesthesia, we created by means of the obstruction of the vessel a massive hearth of myocardial ischemia.
We administered the sodium salt intravenously in doses of 30, 100, 200 and 250 mg per kilogram of body weight, immediately after having released the tie. In the control group, the rats were administered a physiological solution, while the test group was given the antioxidant Dibunolo (20% oily solution in a dose of 30 mg/kg).

[2] = tested on: brain ischemia (carotid tying) in mice; experiment: Example 4: carotid tying and release in mice; type: in vivo; details: control mortality 50%
Experimental: We performed experiments on 50 mice of the pyramid by tying the carotid under light anesthesia. After 7 minutes, we released the tie and restored the blood circulation in the ischemic area.

[3] = Summary of experiments on phthaloylhydrazide derivatives; type: in vivo; details: for pharmacological activity, anti-hypoxic and defensive action: doses of 10 to 300 mg/kg
Sprague-Dawley rats = details: use to decrease serum cholesterol levels; cited from earlier work
hypoxia in mice = experiment: Example 1: resistance of mice to hypoxia (altitude of 10,400 meters); type: in vivo; details: control 41±2.5, sodium salt at 60 to 80 mg/kg
Experimental: We assessed the pharmacological activity on the basis of the resistance of the animals to hypoxia. […] We administered the drug intravenously in doses of 10 to 300 mg, in 0.1 ml of physiological solution. In some cases, because of poor solubility, we injected the derivatives in the form of suspensions. The control animals received 0.1 ml of physiological solution.

[4] = tested on: ethane and pentane contents of the air inhaled by the animals; details: change in ethane and pentane contents
leukocytes = details: in vivo
[5] = tested on: leukocytes in ischemic tissue; surviving animals
[6] = morphological analysis, test group

With Cc1cc(C(C)(C)C)c(O)c(C(C)(C)C)c1 [Dibunolo, reference compound] the survival rate ([1]; Dibunolo 20% oily solution, 30 mg/kg, p>0.05) was “tendency toward rising survival rates of the animals, but the results obtained were not reliable” and the prevention of mortality [2] was “not entirely prevented”.

With N[C@@H](Cc1c[nH]cn1)C(=O)O [histidine, reference compound] the prevention of mortality [2] was “not entirely prevented”.

For O=c1[nH][nH]c(=O)c2ccccc12 [Phthaloylhydrazide, 2,3 dihydrophthalazine-1,4 dione], the “pharmacological activity, anti-hypoxic and defensive action” value (from here on “pharmacological activity”) [3] is listed as “possess a pronounced pharmacological activity” and the toxicity (Sprague-Dawley rats) is listed as “certain signs of toxicity”.

In the case of “4,5-amino-2,3- dihydrophthalazine-1,2 dione [4,5-aminophthaloylhydrazide]”, the “pharmacological activity” value [3] is reported as “possess a pronounced pharmacological activity”.

With dimethyldiaminophthaloylhydrazide the “life span of the animals” value (hypoxia in mice) was 89 ± 12 s.

In the case of Nc1ccc2c(=O)[nH][nH]c(=O)c2c1 [4-aminophthaloylhydrazide], the therapeutic effects ([3]; in vivo) is reported as “major therapeutic effects”.

For “4-methyl-4,5-diamino-2,3 dihydrophthalazine-1,2 dione”, the “pharmacological activity” value [3] was “possess a pronounced pharmacological activity”.

In the case of Nc1cccc2c(=O)[nH][nH]c(=O)c12 [sodium salt of 5-aminophthaloylhydrazide, sodium salt of 5-amino-2,3-dihydrophthalazine-1,2 dione], the “life span of the animals” value (hypoxia in mice) is reported as 222 ± 45 s, the “signs of a therapeutic effect” value ([1]; 30 mg/kg i.v.) is reported as “clear signs of a therapeutic effect” and the prevention of death ([1]; 30 mg/kg i.v., p>0.05) is reported as “did not prevent the death of the animals”. The “number of surviving animals” value ([1]; 100 mg/kg and beyond, i.v., p<0.01-0.001) was “increase in the number of surviving animals”, the “damaged area of myocardium” value [1, 6] was “the damaged area could not be perceived visually” and the “necrotic hearths in myocardium” value [1, 6] was “The tiny necrotic hearths were few and diffused”. The “antioxidant action in vivo” value [4] was “antioxidant action in vivo”, the “adhesion capacity of the leukocytes” value (leukocytes) was “drop in the adhesion capacity of the leukocytes” and the “anti-hypoxic activity vs antioxidants (Dibunolo, histidine, Organeia, etc.)” value (hypoxia; 60 to 80 mg) was “exceeds that of antioxidants used thus far in medical practice”. For the same compound, the “anti-hypoxic effect on further dose increase” value (hypoxia; beyond 100 mg/kg) was “the effect does not basically increase”, the “percentage of surviving animals” value ([5]; experimental group, intravenous, p<0.01) was 80% and the “increase of leukocyte levels in the blood” value ([5]; one time i.v. 150 to 250 mg/kg) was 2.5 times. For the same compound, the “previously penetrated leukocytes eliminated” value ([5]; one time i.v. 150 to 250 mg/kg, after 6 hours) was 75%.
